This is an account of results in patent US6447801B1, “Anti-parasitic action of N,N-diethyl-m-toluamide (deet) and formulations that prolong its activity in the skin” (priority 1997, dated 2002).

Like-named read-outs stand apart in the source and are kept apart here. Bounds are passed on as bounds.

The subject of one data set is cercariae. The conditions noted are these: in tissue culture / in vitro, cited from earlier work.
Data set [1] is described as follows: Disposition of 14C-DEET and 14C-Lipodeet after skin application (skin, blood, urine, bedding radioactivity). The procedure: In this series of experiments, 11.472 mg of ^14C-DEET of ^14C-Lipodeet (in 100 μl) was applied to 5 cm^2 area of the mice abdominal skin. At different time points (15 min, 30 min, 60 min, 2 hrs., 4 hrs., 24 hrs., 48 hrs. and 72 hrs.) after application, the whole area of skin where the lipodeet had been applied was collected, underlying tissue removed and the radioactivity measured in a Beckman β-counter. Samples of blood and urine were also collected at these time points from each mouse to measure the radioactivity (n=10 for each time point). […] In this study, we made observations only up to 72 hrs. […] There are two possibilities, (1) substantial quantities of both DEET and Lipodeet are absorbed systemically through the skin within 24 hrs., or (2) both the chemicals are lost in the bedding due to direct contact of the applied area to the bedding materials. The first hypothesis was tested by measuring ^14C levels in the blood and urine in these animals.

As to `O=C(Nc1ccc([N+](=O)[O-])cc1Cl)c1cc(Cl)ccc1O` [Niclosamide], the cercaricidal effect entry in the data set with cercariae is reported as “significant cercaricidal effect”. In the case of `CCCCCCCCCCCC(=O)N(CC)CC` [N,N-diethyl lauramide], the cercaricidal effect result in the data set with cercariae is recorded as “significant cercaricidal effect”.

Consider `CCCCOC(=O)c1ccccc1C(=O)OCCCC` [dibutyl phthalate], for which the cercaricidal effect result in the data set with cercariae is “significant cercaricidal effect”.

Take `CCN(CC)C(=O)c1cccc(C)c1` [^14C-DEET]: in data set [1] (15 minutes after application), the urine radioactivity is > 5.7×10^7 cpm/ml. Also, the “radio label in the blood” value in data set [1] (within 15 minutes after application) is “Significant quantity of the radio label was present in the blood”.

Turning to `O=C(OCc1ccccc1)c1ccccc1` [benzyl benzoate], the cercaricidal effect result with cercariae is recorded as “significant cercaricidal effect”. `Oc1c(Cl)cc(Cl)c(Cl)c1Cc1c(O)c(Cl)cc(Cl)c1Cl` [hexachlorophene]: the cercaricidal effect result in the data set with cercariae is reported as “significant cercaricidal effects”; with cercariae (listed as hexachlorophere), “significant cercaricidal effect”. On to `C[C@@H]1CC[C@H]2C(C)(C)[C@H]3C[C@@]12CC[C@@]3(C)O` [Cederol], for which the cercaricidal effect entry in the data set with cercariae is “significant cercaricidal effect”.
